According to patent US9169254B2, “Spiroimidazolone derivative” (Chugai Seiyaku Kabushiki Kaisha, priority 2009, dated 2015):

Biological target: T1, human PTH1 receptor (Homo sapiens, UniProt Q03431)
T1 sequence (Q03431 27-593): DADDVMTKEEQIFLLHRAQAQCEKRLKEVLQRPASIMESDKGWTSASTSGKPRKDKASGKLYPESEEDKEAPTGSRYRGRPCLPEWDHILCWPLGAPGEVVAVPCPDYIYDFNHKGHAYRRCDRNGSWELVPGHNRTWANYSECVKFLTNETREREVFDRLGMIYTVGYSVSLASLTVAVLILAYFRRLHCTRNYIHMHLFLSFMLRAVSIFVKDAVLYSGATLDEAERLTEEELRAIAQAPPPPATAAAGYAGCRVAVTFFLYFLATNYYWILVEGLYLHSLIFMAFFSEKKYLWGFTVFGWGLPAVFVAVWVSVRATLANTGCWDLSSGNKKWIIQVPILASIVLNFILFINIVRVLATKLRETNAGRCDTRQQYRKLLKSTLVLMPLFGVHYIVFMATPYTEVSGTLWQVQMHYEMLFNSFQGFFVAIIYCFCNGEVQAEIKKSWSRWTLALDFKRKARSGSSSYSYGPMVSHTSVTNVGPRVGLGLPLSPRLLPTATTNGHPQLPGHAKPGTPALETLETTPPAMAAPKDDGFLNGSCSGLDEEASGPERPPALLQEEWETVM
Experiment: In vitro cAMP signal activity in HKRK-B7 cells (LLC-PK1 cells overexpressing the human PTH1 receptor)
Type: cell-based
Details: HKRK-B7 cells; compound at 1×10^−3 M; cAMP produced as percentage of that produced by hPTH(1-34) at 100 nM

| Compound | cAMP production activity (%) |
| --- | --- |
| Cc1cc(N(C)C(N)=O)cc(C)c1CCS(=O)(=O)N1CCC2(CC1)N=C(CCCCCCCCCF)NC2=O [Compound 1327, 1-(4-{2-[2-(9-Fluoro-nonyl)-4-oxo-1,3,8-triaza-spiro[4.5]dec-1-ene-8-sulfonyl]-ethyl}-3,5-dimethyl-phenyl)-1-methyl-urea] | 92% |
| Cc1cc(C(=O)N(C)C)ccc1CCS(=O)(=O)N1CCC2(CC1)N=C(N(C)c1ccccc1)NC2=O [Compound 1397, 3,N,N-trimethyl-4-{2-[2-(methyl-phenyl-amino)-4-oxo-1,3,8-triaza-spiro[4.5]dec-1-ene-8-sulfonyl]-ethyl}-benzamide] | 24% |
| Cc1cc(N2C(=O)NC(C)(C)C2=O)ccc1CCS(=O)(=O)N1CCC2(CC1)N=C(C1CCC(C)CC1)NC2=O (stereo not shown) [Compound 863, 5,5-dimethyl-3-(3-methyl-4-{2-[2-(4-methyl-cyclohexyl)-4-oxo-1,3,8-triaza-spiro[4.5]dec-1-ene-8-sulfonyl]-ethyl}-phenyl)-imidazolidine-2,4-dione] | 67% |
| CC(=O)Nc1ccc(CCS(=O)(=O)N2CCC3(CC2)N=C(c2cccc(C)c2C)NC3=O)c(C)c1 [Compound 146, N-(4-{2-[2-(2,3-dimethyl-phenyl)-4-oxo-1,3,8-triaza-spiro[4.5]dec-1-ene-8-sulfonyl]-ethyl}-3-methyl-phenyl)-acetamide] | 122% |
| Cc1cc(N(C)C(N)=O)cc(C)c1CCS(=O)(=O)N1CCC2(CC1)N=C(c1cccc(OCCCC(F)(F)C(F)(F)F)c1)NC2=O [Compound 1135, 1-[3,5-Dimethyl-4-(2-{4-oxo-2-[3-(4,4,5,5,5-pentafluoro-pentyloxy)-phenyl]-1,3,8-triaza-spiro[4.5]dec-1-ene-8-sulfonyl}-ethyl)-phenyl]-1-methyl-urea] | 84% |
| Cc1cc2ccc1CCS(=O)(=O)N1CCC3(CC1)N=C(NC3=O)c1cc(cc(C(F)(F)F)c1)OCC/C=C\CCCCCN(C)C2=O [Compound 1414] | 47% |
| CC(C)(C)OCC(=O)N1CCCC(C2=NC3(CCN(S(=O)(=O)CCc4cccc5ccccc45)CC3)C(=O)N2)C1 (stereo not shown) [Compound 439, 2-[1-(2-tert-butoxy-acetyl)-piperidin-3-yl]-8-(2-naphthalen-1-yl-ethanesulfonyl)-1,3,8-triaza-spiro[4.5]dec-1-en-4-one] | 33% |
| CC(=O)N(CCO)c1ccc(-c2ccc(S(=O)(=O)N3CCC4(CC3)N=C(c3ccc(F)c(C(F)(F)F)c3)NC4=O)s2)c(C)c1 [Compound 342, N-(4-{5-[2-(4-Fluoro-3-trifluoromethyl-phenyl)-4-oxo-1,3,8-triaza-spiro[4.5]dec-1-ene-8-sulfonyl]-thiophen-2-yl}-3-methyl-phenyl)-N-(2-hydroxy-ethyl)-acetamide] | 93% |
| Cc1cc(C(=O)N2CCC(C)(O)CC2)cc(C)c1CCS(=O)(=O)N1CCC2(CC1)N=C(c1ccc(OC(F)(F)F)cc1)NC2=O [Compound 1234, 8-{2-[4-(4-hydroxy-4-methyl-piperidine-1-carbonyl)-2,6-dimethyl-phenyl]-ethanesulfonyl}-2-(4-trifluoromethoxy-phenyl)-1,3,8-triaza-spiro[4.5]dec-1-en-4-one] | 114% |
| Cc1cc(NCCO)ccc1CCS(=O)(=O)N1CCC2(CC1)N=C(c1cccc(OC(F)(F)F)c1)NC2=O [Compound 159, 8-{2-[4-(2-Hydroxy-ethylamino)-2-methyl-phenyl]-ethanesulfonyl}-2-(3-trifluoromethoxy-phenyl)-1,3,8-triaza-spiro[4.5]dec-1-en-4-one] | 96% |
| CN1CCN(C(=O)Nc2ccc(/C=C/S(=O)(=O)N3CCC4(CC3)N=C(C3CCCCC3)NC4=O)c(C(F)(F)F)c2)CC1 [Compound 485, 4-methyl-piperazine-1-carboxylic acid {4-[(E)-2-(2-cyclohexyl-4-oxo-1,3,8-triaza-spiro[4.5]dec-1-ene-8-sulfonyl)-vinyl]-3-trifluoromethyl-phenyl}-amide] | 7.7% |
| Cc1cc(C2=NC3(CCN(S(=O)(=O)/C=C/c4c(C)cc(C(=O)N5CCC(C)(O)CC5)cc4C)CC3)C(=O)N2)ccc1OC(F)(F)F [Compound 1214, 8-{(E)-2-[4-(4-hydroxy-4-methyl-piperidine-1-carbonyl)-2,6-dimethyl-phenyl]-ethenesulfonyl}-2-(3-methyl-4-trifluoromethoxy-phenyl)-1,3,8-triaza-spiro[4.5]dec-1-en-4-one] | 79% |
| CC(=O)Nc1ccc(CCS(=O)(=O)N2CCC3(CC2)N=C(Nc2cccc(C(F)(F)F)c2)NC3=O)c(C)c1 [Compound 1402, N-(3-methyl-4-{2-[4-oxo-2-(3-trifluoromethyl-phenylamino)-1,3,8-triaza-spiro[4.5]dec-1-ene-8-sulfonyl]-ethyl}-phenyl)-acetamide] | 69% |
| Cc1cc(N2C(=O)CNC2=O)ccc1CCS(=O)(=O)N1CCC2(CC1)N=C(c1cccc(OC(F)(F)F)c1)NC2=O [Compound 792, 3-(3-methyl-4-{2-[4-oxo-2-(3-trifluoromethoxy-phenyl)-1,3,8-triaza-spiro[4.5]dec-1-ene-8-sulfonyl]-ethyl}-phenyl)-imidazolidine-2,4-dione] | 110% |
| Cc1noc(C2CCN(C(=O)c3ccc(CCS(=O)(=O)N4CCC5(CC4)N=C(c4cccc(C(F)(F)F)c4)NC5=O)c(C)c3)CC2)n1 [Compound 358, 8-(2-{2-methyl-4-[4-(3-methyl-[1,2,4]oxadiazol-5-yl)-piperidine-1-carbonyl]-phenyl}-ethanesulfonyl)-2-(3-trifluoromethyl-phenyl)-1,3,8-triaza-spiro[4.5]dec-1-en-4-one] | 71% |
| Cc1cc(C(=O)N(C)C)ccc1CCS(=O)(=O)N1CCC2(CC1)N=C(C(C)(C)Oc1ccc(Cl)cc1Cl)NC2=O [Compound 175, 4-(2-{2-[1-(2,4-Dichloro-phenoxy)-1-methyl-ethyl]-4-oxo-1,3,8-triaza-spiro[4.5]dec-1-ene-8-sulfonyl}-ethyl)-3,N,N-trimethyl-benzamide] | 73% |
| CC(=O)Nc1ccc(CCS(=O)(=O)N2CCC3(CC2)N=C([C@H]2CC[C@H](CCF)CC2)NC3=O)c(C)c1 [Compound 1061, N-[4-(2-{2-[4-(2-fluoro-ethyl)-cyclohexyl]-4-oxo-1,3,8-triaza-spiro[4.5]dec-1-ene-8-sulfonyl}-ethyl)-3-methyl-phenyl]-acetamide] | 55% |
| CCCc1ccc(-c2cccc(C3=NC4(CCN(S(=O)(=O)/C=C/c5c(C)cc(N(C)C(N)=O)cc5C)CC4)C(=O)N3)c2)cc1 [Compound 1114, 1-(3,5-Dimethyl-4-{(E)-2-[4-oxo-2-(4′-propyl-biphenyl-3-yl)-1,3,8-triaza-spiro[4.5]dec-1-ene-8-sulfonyl]-vinyl}-phenyl)-1-methyl-urea] | 95% |
| CC1(C)OC[C@H](Cn2ccc3c(/C=C/S(=O)(=O)N4CCC5(CC4)N=C(C4CCC(C(F)(F)F)CC4)NC5=O)cccc32)O1 (stereo partly drawn) [Compound 245, 8-{(E)-2-[1-((S)-2,2-dimethyl-[1,3]dioxolan-4-ylmethyl)-1H-indol-4-yl]-ethenesulfonyl}-2-(4-trifluoromethyl-cyclohexyl)-1,3,8-triaza-spiro[4.5]dec-1-en-4-one] | 34% |
